From article PMC8596843, “Platinum Cyclooctadiene Complexes with Activity against Gram‐positive Bacteria” (Chemmedchem, 2021)

Tests used:
[1] = system: HEK-293 ATCC CRL-1573 human embryonic kidney cells; format: cell-based
Procedure: As part of the CO‐ADD screening, all compounds that show any activity against a microbial strain are evaluated for their cytotoxicity against human embryonic kidney cells (HEK‐293) and for haemolysis against human red blood cells. None of the compounds tested for cytotoxicity (Pt1‐9 and Pd1) caused any significant cell death up to concentrations of 100 μM. […] We have also observed higher IC50 values for the methylated complexes Pt3 and Pt4 against HeLa cells in previous work.[16] […]
(§1) inhibitors as positive control.
(§2) Tamoxifen (Sigma T5648) was used
(§3) as internal control on each plate.
in a Neubauer haemocytometer. […]

human red blood cells = assay: Haemolysis assay; format: cell-based
Procedure: As part of the CO‐ADD screening, all compounds that show any activity against a microbial strain are evaluated for their cytotoxicity against human embryonic kidney cells (HEK‐293) and for haemolysis against human red blood cells. None of the compounds tested for cytotoxicity (Pt1‐9 and Pd1) caused any significant cell death up to concentrations of 100 μM. […] We have also observed higher IC50 values for the methylated complexes Pt3 and Pt4 against HeLa cells in previous work.[16]
(§4) The resultant mid-log phase cultures were diluted
(§5) Gram-negative and Gram-positive bacteria, respectively.
(§6) final concentration range of 0.8 – 100 µM.
as §1, §2, §3
in a Neubauer haemocytometer.
incubated for 1 h at 37 °C, without shaking.
HC10 and HC50 (concentration at which 10%
for top, bottom and slope using Prism 8. […]

[2] = system: Staphylococcus aureus ATCC 25923, MSSA; assay: Antibacterial MIC assay, Gram-positive panel; format: cell-based; conditions: Table S1 panel; n=4
Excerpt: (§7) Bis(dimethyl-η4)-((1Z,1'E,5Z,5'E)-(1,1'-bi(cyclooctadiene))diplatinum(II) (Pt14) Smiles: C1C=CCCC(=CC1)C1=CCCC=CCC1.C[Pt]C.C[Pt]C
(§8) InChIKey: PHIWIZAHOBWKFJ-HPCBIOCFSA-N
(§9) Link to selected data that was repeated to approve the identity of the compounds: https://dx.doi.org/10.14272/PHIWIZAHOBWKFJ-HPCBIOCFSA-N.1
(§10) ATCC strains were sourced from the American Type Culture Collection and NRS strains from NARSA (Network on Antimicrobial Resistance in Staphylococcus aureus) via BEI Resources (www.beiresources.org), with clinical MSSA and MRSA isolates from Prof Graeme Nimmo, Queensland […]
(§11) Health Central Pathology. […]
(§12) Antibacterial minimum inhibitory concentration (MIC) assay
(§13) Compound Assay Plate Preparation: Compounds were dissolved in DMSO at 10mM (CO-ADD screening) or 4 mM (follow up screening) and were plated in a 2-fold dose response from 20 to 0.156 µM or 200 to 0.006 µM respectively, with a maximum of 0.5% or 1% DMSO, final in the assay […]
(§14) plated in a 2-fold dose response from 200 to 0.006 µM, with a maximum of 1 % DMSO, final in the assay concentration. (in-house screening)
(§15) For all the bacterial assays, each strain was cultured in Cation-adjusted Mueller Hinton broth (CAMHB; Bacto Laboratories 212322) at 37 °C overnight. A sample of each culture was then diluted 40-fold in fresh CAMHB and incubated at 37 °C for 1.5–3 h. The resultant mid-log phase cultures were diluted with CAMHB (CFU mL−1 measured by OD600), then added to each well of the compound-containing plates (384-well non-binding surface (NBS) plates; Corning CLS3640), giving a cell density of 5 × 10^5 CFU mL−1 and a total volume of 50 μL. Plates were covered and incubated at 37 °C for 18 h without shaking. Inhibition of bacterial growth was determined measuring absorbance at 600 nm (OD600), using media only as negative control and bacteria without inhibitors as positive control. MIC values were determined as the lowest concentration at which the growth was inhibited at ≥80%. Colistin sulfate (Sigma C4461) and vancomycin HCl (Sigma 861987) were used as internal controls on each plate for Gram-negative and Gram-positive bacteria, respectively. […]

[3] = system: Staphylococcus aureus VRS 1, VRSA (VanA); assay: Antibacterial MIC assay, Gram-positive panel; format: cell-based; conditions: Table S1 panel; n=4
Excerpt: as §7, §8, §9, §10, §11, §12, §13, §14, §15

[4] = system: Bacillus subtilis ATCC 6051, type strain; assay: Antibacterial MIC assay, Gram-positive panel; format: cell-based; conditions: Table S1 panel; n=2
Procedure: (§16) Smiles: C1C=CCCC(=CC1)C1=CCCC=CCC1.C[Pt]C.C[Pt]C […]
as §10, §11, §12, §13, §14, §15

[5] = system: Enterococcus faecalis ATCC 29212, control strain; assay: Antibacterial MIC assay, Gram-positive panel; format: cell-based; conditions: Table S1 panel; n=4
Procedure: as §16, §10, §11, §12, §13, §14, §15

[6] = system: Enterococcus faecalis Clinical Isolate, VRE (VanB); assay: Antibacterial MIC assay, Gram-positive panel; format: cell-based; conditions: Table S1 panel; n=4
Procedure: as §16, §10, §11, §12, §13, §14, §15

[7] = system: Enterococcus faecium ATCC 35667, type strain; assay: Antibacterial MIC assay, Gram-positive panel; format: cell-based; conditions: Table S1 panel; n=4
Procedure: as §16, §10, §11, §12, §13, §14, §15

[8] = system: Enterococcus faecium ATCC 51559, MDR, VRE (VanA); assay: Antibacterial MIC assay, Gram-positive panel; format: cell-based; conditions: Table S1 panel; n=2
Procedure: as §16, §10, §11, §12, §13, §14, §15

[9] = system: Enterococcus faecium Clinical Isolate, VRE (VanA); assay: Antibacterial MIC assay, Gram-positive panel; format: cell-based; conditions: Table S1 panel; n=4
Procedure: as §16, §10, §11, §12, §13, §14, §15

[10] = system: Staphylococcus epidermidis ATCC 14990, type strain; assay: Antibacterial MIC assay, Gram-positive panel; format: cell-based; conditions: Table S1 panel; n=4
Procedure: as §16, §10, §11, §12, §13, §14, §15

[11] = system: E. coli lpxC (non‐efficient lipid A production mutant); assay: MIC against E. coli membrane mutants; format: cell-based, Escherichia coli; conditions: Table S2
Procedure: as §12
(§17) concentration. (in-house screening)
(§18) Bacto Laboratories 212322) at 37 °C overnight.
as §4, §5, §6
(§19) inhibitors as positive control. […]

[12] = system: B. subtilis ATCC 6051 type strain; assay: MIC in the presence of human serum (serum reversal); format: cell-based, Bacillus subtilis; conditions: 10% serum
Excerpt: (§20) To obtain some initial insight into the apparent disparity between in vitro and in vivo results, we repeated the MIC experiments against four selected Gram‐positive strains in the presence of 10 % or 50 % human serum (Table S3). Pt1 and Pt2 maintained some antibacterial activity against B. subtilis in the presence of 10 % serum, but a complete loss of activity was observed against MRSA and GISA (50 % serum), and VRE (10 % serum). […] Systemic administration is therefore unlikely to be a suitable administration route for this class of compounds unless an alternative formulation that can prevent serum binding (e. g. by lipid or nanoparticle encapsulation) can be found. […] Further in vivo studies should therefore focus on more suitable disease models. […]
as §12, §17, §18, §4, §5, §6, §19

[13] = system: S. aureus ATCC 43300 MRSA; assay: as above; format: cell-based, Staphylococcus aureus; conditions: 50% serum
Excerpt: as §20, §12, §17, §18, §4, §5, §6, §19

S. aureus NRS 17 GISA = assay: as above; format: cell-based, Staphylococcus aureus; conditions: 50% serum
Excerpt: as §20, §12, §17, §18, §4, §5, §6, §19

[14] = system: E. faecium ATCC 51559 MDR, VRE; assay: as above; format: cell-based, Enterococcus faecium; conditions: 10% serum
Excerpt: as §20, §12, §17, §18, §4, §5, §6, §19

Question: How did the CC50 [1] turn out when `C1=C\CC/C=C\CC/1.[Cl][Pd][Cl]` [Pd1] was run?
Answer: Its CC50 is over 100 µM.

Question: And the “Haemolysis HC10” value (human red blood cells; concentration inducing 10 % haemolysis)?
Answer: Its value is 7.76 µM.

Question: What about the “Haemolysis HC50” value (human red blood cells; concentration inducing 50 % haemolysis) of the same compound?
Answer: Its value is 10.14 µM.

Question: What about the MIC [2] of the same compound?
Answer: Its MIC is 200 µM.

Question: What about the MIC [3] of the same compound?
Answer: The MIC was over 200 µM.

Question: And the MIC [4]?
Answer: The MIC was over 200 µM.

Question: And the MIC [5]?
Answer: Its MIC is over 200 µM.

Question: And the MIC [6]?
Answer: The MIC was over 200 µM.

Question: What about the MIC [7] of the same compound?
Answer: Its MIC is over 200 µM.

Question: What about the MIC [8] of the same compound?
Answer: Its MIC is 200 µM.

Question: What about the MIC [9] of the same compound?
Answer: The MIC was over 200 µM.

Question: What about the MIC [10] of the same compound?
Answer: The MIC was 100 µM.

Question: What about the MIC E. coli lpxC [11] of the same compound?
Answer: Its MIC E. coli lpxC is over 200 µM.

Question: What about the MIC in the presence of human serum [12] of the same compound?
Answer: Its MIC in the presence of human serum is over 200 µM.

Question: What about the MIC in the presence of human serum [13] of the same compound?
Answer: The MIC in the presence of human serum was over 200 µM.

Question: What about the MIC in the presence of human serum (S. aureus NRS 17 GISA) of the same compound?
Answer: The MIC in the presence of human serum was over 200 µM.

Question: What about the MIC in the presence of human serum [14] of the same compound?
Answer: Its MIC in the presence of human serum is over 200 µM.
